What was measured:
KB 3-1 = assay: In vitro cytotoxicity using human epidermoid carcinoma (KB-3-1) cells; format: functional, cell-based
KB = assay: In vitro cytotoxicity using human epidermoid carcinoma (KB-A1) cells; format: functional, cell-based
L1210 = assay: In vitro cytotoxicity using murine leukemia L1210 cells from american type culture collection.; format: functional, cell-based; settings: Mus musculus
[1] = Resistant Factor against MDR cell lines. Value expressed as ratio of IC50 on the resistant cell and on the corresponding sensitive cells.; format: functional

Row | Compound | IC50 (KB 3-1) [nM] | IC50 (KB) [nM] | IC50 (L1210) [nM] | RF [1]
1 | COc1cccc2c1C(=O)c1c(O)c3c(c(O)c1C2=O)C[C@@](O)(C(C)=O)C[C@@H]3OC1CC(Cl)C(N=[N+]=[N-])C(C)O1 (stereo partly specified) | 1610 | 2760 | 1370 | 1.7
2 | COc1cccc2c1C(=O)c1c(O)c3c(c(O)c1C2=O)C[C@@](O)(C(C)=O)C[C@@H]3OC1CC(Cl)C(NC(=O)C(F)(F)F)C(C)O1 (stereo partly specified) | 550 | 3790 | 500 | 6.9
3 | COc1cccc2c1C(=O)c1c(O)c3c(c(O)c1C2=O)C[C@@](O)(C(C)=O)C[C@@H]3O[C@H]1C[C@H](N)[C@H](O)[C@H](C)O1 [DAUNORUBICIN] | 7 | 2070 | 33 | 295.7
4 | COc1cccc2c1C(=O)c1c(O)c3c(c(O)c1C2=O)C[C@@](O)(C(=O)CO)C[C@@H]3O[C@H]1C[C@H](N)[C@H](O)[C@H](C)O1 [DOXORUBICIN] | 21 | 7010 | 33 | 333.8
